Measured values reported in patent US20110183961A1, “AZETIDINE POLYSUBSTITUTED COMPOUNDS, PREPARATION THEREOF, AND THERAPEUTIC APPLICATION THEREOF” (SANOFI-AVENTIS, priority 2008, published 2011).
pIC50: −log10 of the molar value.

What was measured:
[1] = biological target: T1, human CB1 receptor (Homo sapiens, UniProt P21554); test: intracellular cyclic AMP functional test in U373MG cells (HTRF cAMP Dynamic Kit); assay type: cell-based; details: U373MG cells naturally expressing the human CB1 receptor
T1 construct: U373MG cells naturally expressing the human CB1 receptor; endogenous in cells; host or cells: U373MG cells
Experimental: The compounds according to the invention have been the subject of pharmacological assays which make it possible to determine the activity with respect to human CB1-type cannabinoid receptors. The effectiveness of the compounds of formula (I) was determined in a functional test in which the activity of the CB1 cannabinoid receptors is measured (intracellular cyclic AMP test). The test for detecting intracellular cyclic AMP in U373MG cells naturally expressing the human CB1 receptor was carried out as described in the reference: Bouaboula et al., 1995, J. Biol. Chem. 270:13973-13980. The HTRF cAMP Dynamic Kit from CisBio was used to quantify the intracellular cyclic AMP. In this test, the IC50 values are between 0.001 μM and 1 μM.

[2] = biological target: T2, CB1 cannabinoid receptor (Mus musculus, UniProt P47746); test: inhibition of gastrointestinal transit induced by racemic CP55,940 in mice (charcoal bolus); assay type: in vivo; details: male CD1 mice, 3 hours after administration of the product, CP55,940 0.15 mg/kg ip
T2 construct: male CD1 mice receive the test product per os; from tissue; host or cells: whole animal, male CD1 mice (gastrointestinal tract)
Experimental: Their antagonist activity was also shown by means of the model of inhibition of gastrointestinal transit induced by racemic CP55,940 (1RS, 3RS, 4RS)-3-[hydroxy-2-(1,1-dimethylheptyl)phenyl]-4-(3-hydroxypropyl)cyclohexan-1-ol) in mice, according to the method described by Rinaldi-Carmona et al., J. Pharmacol. Exp. Ther. 2004, 310, 905-914. Briefly, male CD1 mice receive the test product per os 30 minutes or 2 hours before administration of the racemic CP55,940 agonist ((1RS, 3RS, 4RS)-3-[hydroxy-2-(1,1-dimethylheptyl)phenyl]-4-(3-hydroxypropyl)cyclohexan-1-ol) (0.15 mg/kg ip in 10% cremophor). After a further 30 minutes, the animals receive a charcoal bolus po. Thirty minutes later, the animals are sacrificed by euthanasia (CO2/O2) and the intestine is dissected. The progression of the charcoal bolus in the intestine is expressed as percentage of the total length of the intestine.

T1 sequence (P21554 whole entry): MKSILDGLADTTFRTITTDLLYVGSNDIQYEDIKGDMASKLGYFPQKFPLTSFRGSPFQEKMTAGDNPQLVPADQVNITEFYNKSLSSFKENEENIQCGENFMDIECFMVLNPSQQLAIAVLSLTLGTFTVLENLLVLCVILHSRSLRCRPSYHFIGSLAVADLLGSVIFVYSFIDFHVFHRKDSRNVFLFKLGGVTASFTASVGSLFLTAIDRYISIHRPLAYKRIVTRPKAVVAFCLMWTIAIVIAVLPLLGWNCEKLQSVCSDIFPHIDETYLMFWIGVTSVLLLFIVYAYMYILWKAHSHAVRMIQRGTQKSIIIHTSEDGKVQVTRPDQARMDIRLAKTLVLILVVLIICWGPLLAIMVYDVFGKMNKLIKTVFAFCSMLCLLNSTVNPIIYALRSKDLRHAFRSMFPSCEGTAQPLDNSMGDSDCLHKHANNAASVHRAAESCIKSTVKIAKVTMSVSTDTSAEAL
T2 sequence (P47746 whole entry): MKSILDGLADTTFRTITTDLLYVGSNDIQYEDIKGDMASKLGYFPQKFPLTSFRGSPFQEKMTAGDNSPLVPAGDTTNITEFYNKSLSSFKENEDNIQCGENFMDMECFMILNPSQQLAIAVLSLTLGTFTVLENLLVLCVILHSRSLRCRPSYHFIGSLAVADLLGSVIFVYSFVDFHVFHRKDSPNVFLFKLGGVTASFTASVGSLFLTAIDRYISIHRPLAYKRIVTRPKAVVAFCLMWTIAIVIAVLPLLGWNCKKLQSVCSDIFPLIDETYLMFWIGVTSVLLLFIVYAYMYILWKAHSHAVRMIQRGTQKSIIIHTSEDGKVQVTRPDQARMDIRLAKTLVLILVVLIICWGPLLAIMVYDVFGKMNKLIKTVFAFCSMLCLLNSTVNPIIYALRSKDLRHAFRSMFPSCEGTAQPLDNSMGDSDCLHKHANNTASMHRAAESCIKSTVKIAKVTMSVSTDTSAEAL

Row | SMILES | melting point [°C] | pIC50 [1] | further results
1 | CS(=O)(=O)N(c1cccc(C(=O)NC2CCS(=O)(=O)CC2)c1)C1CN(C(c2ccc(Cl)cc2)c2ccc(Cl)cc2)C1 [compound 11, 3-[{1-[bis(4-chlorophenyl)methyl]azetidin-3-yl}(methylsulphonyl)amino]-N-(1,1-dioxidotetrahydro-2H-thiopyran-4-yl)benzamide] | 270 |  | 
2 | CS(=O)(=O)N(c1cc(F)cc(C(=O)NC2CCNC2=O)c1)C1CN(C(c2ccc(Cl)cc2)c2ccc(Cl)cc2)C1 (single isomer, unassigned; (-)) [Compound No. 16, (−)-3-[{1-[bis(4-Chlorophenyl)methyl]azetidin-3-yl}(methylsulphonyl)amino]-5-fluoro-N-[2-oxopyrrolidin-3-yl]benzamide] |  | 8.15 | 
3 | CS(=O)(=O)N(c1cccc(C(=O)NC2CCS(=O)(=O)C2)c1)C1CN(C(c2ccc(Cl)cc2)c2ccc(Cl)cc2)C1 (centres unmarked) [Compound No. 2, 3-[{1-[bis(4-Chlorophenyl)methyl]azetidin-3-yl}(methylsulphonyl)amino]-N-(1,1-dioxidotetrahydrothiophen-3-yl)benzamide] |  | 7.33 | percentage inhibition, gastrointestinal transit model ([2]; 2 mg/kg per os): 57%
4 | CS(=O)(=O)N(c1cc(F)cc(C(=O)NC2CCNC2=O)c1)C1CN(C(c2ccc(Cl)cc2)c2ccc(Cl)cc2)C1 (centres unmarked) [Compound No. 14, 3-[{1[bis(4-Chlorophenyl)methyl]azetidin-3-yl}(methyl-sulphonyl)amino]-5-fluoro-N-(2-oxopyrrolidin-3-yl)benzamide] |  | 8.05 | 
5 | CCN1CCCC1CNC(=O)c1cccc(N(C2CN(C(c3ccc(Cl)cc3)c3ccc(Cl)cc3)C2)S(C)(=O)=O)c1 (single isomer, unassigned; (-)) [Compound No. 5, (−)-3-[{1-[bis(4-Chlorophenyl)methyl]azetidin-3-yl}(methyl-sulphonyl)amino]-N-{[1-ethylpyrrolidin-2-yl]methyl}benzamide] | 128 |  | percentage inhibition, gastrointestinal transit model ([2]; 1 mg/kg per os): 39%
6 | CS(=O)(=O)N(c1cccc(C(=O)NCCN2CCNC2=O)c1)C1CN(C(c2ccc(Cl)cc2)c2ccc(Cl)cc2)C1 [compound 9, 3-[{1-[bis(4-chlorophenyl)methyl]azetidin-3-yl}(methylsulphonyl)amino]-N-[2-(2-oxoimidazolidin-1-yl)ethyl]benzamide] | 130 | 6.89 | 
7 | CS(=O)(=O)N(c1cccc(C(=O)NC2CCSCC2)c1)C1CN(C(c2ccc(Cl)cc2)c2ccc(Cl)cc2)C1 [compound 10, 3-[{1-[bis(4-chlorophenyl)methyl]azetidin-3-yl}(methylsulphonyl)amino]-N-(tetrahydro-2H-thiopyran-4-yl)benzamide] | 210 |  | 
8 | CCN1CCCC1CNC(=O)c1cccc(N(C2CN(C(c3ccc(Cl)cc3)c3ccc(Cl)cc3)C2)S(C)(=O)=O)c1 (single isomer, unassigned; (+)) [Compound No. 6, (+)-3-[{1[bis(4-Chlorophenyl)methyl]azetidin-3-yl}(methyl-sulphonyl)amino]-N-{[1-ethylpyrrolidin-2-yl]methyl}benzamide] | 122 |  | 
